Measurements taken from article PMC11637378, “Optogenetic screening of MCT1 activity implicates a cluster of non-steroidal anti-inflammatory drugs (NSAIDs) as inhibitors of lactate transport” (PLOS ONE, 2024).
“And” between values parts separate entries of the source, which are not always exact repeats. Identical values can stand only once. Counter-ions that a name gives are not always drawn.

Tested on: parent strain (SAWy518)

SMILES | OffScreen_percentage [percentage] | Offscreen_18hr | Offscreen_24hr | Offscreen_42hr | Offtarget | Offtarget_sub | Read_percentage [percentage]
CCCc1c(-c2ccc(O)cc2)nn(-c2ccc(O)cc2)c1-c1ccc(O)cc1 | 98.9963 | 0.7989 | 0.9026 | 0.9515 | – | – | –
CC(C)Cn1c(=O)n(C)c(=O)c2[nH]cnc21 [3-Isobutyl-1-methylxanthine, reference compound] | – | – | – | – | NO | 0.4308 | –
O=C(/C=C/c1ccccc1)c1ccc(O)cc1 [4'-HYDROXYCHALCONE] | – | 0.7341 | 0.8731 | 0.9266 | – | – | –
O=C(/C=C/c1ccc(O)cc1)c1ccccc1 [4-hydroxychalcone, reference compound] | 103.693 | 0.8368 | 0.9201 | 0.9804 | – | – | 103.693
CC[n+]1c(/C=C/C=C2/N(C)c3ccccc3C2(C)C)sc2ccccc21.[I-] [AC-93253 iodide] | – | 0.3559 | 0.5533 | 0.821 | – | – | –
C[n+]1c2cc(N)ccc2cc2ccc(N)cc21.[Cl-] [ACRIFLAVINIUM HYDROCHLORIDE] | – | 0.6168 | 0.8008 | 0.904 | – | – | –
Nc1c2ccccc2nc2ccccc12 [AMINACRINE] | – | 0.3466 | 0.4931 | 0.7904 | – | – | –
Br.Br.N=C(N)SCCN [AMINOETHYLISOTHIOUREA DIHYDROBROMIDE] | – | 0.0502 | 0.0525 | 0.1802 | – | – | –
C[C@@H]1CC[C@H]2[C@@H](C)C(=O)O[C@@H]3O[C@@]4(C)CC[C@@H]1[C@]32OO4 [ARTEMISININ] | – | 0.4969 | 0.7016 | 0.8396 | – | – | –
O=C1NC(=O)/C(=C/c2ccc(-c3ccc(F)cc3O)o2)S1 [AS-252424] | – | 0.6896 | 0.8289 | 0.8951 | – | – | –
CCCCc1oc2ccccc2c1C(=O)c1cc(I)c(OCCN(CC)CC)c(I)c1 [Amiodarone hydrochloride] | – | 0.3754 | 0.6492 | 0.9258 | – | – | –
N.S=C(S)N1CCCC1 [Ammonium pyrrolidinedithiocarbamate] | – | 0.6686 | 0.8623 | 0.942 | – | – | –
CO[C@H]1O[C@@H]2O[C@@]3(C)CC[C@H]4[C@H](C)CC[C@@H]([C@H]1C)[C@@]24OO3 [Artemether] | – | 0.3535 | 0.4688 | 0.7035 | – | – | –
Cc1ccc(S(=O)(=O)/C=C/C#N)cc1 [BAY 11-7082 (BAY 11-7821)] | – | 0.151 | 0.3413 | 0.9249 | – | – | –
CCCCCCCCCCCCC[N+](C)(C)Cc1ccccc1.[Cl-] [BENZALKONIUM CHLORIDE] | – | 0.0504 | 0.056 | 0.5903 | – | – | –
CCc1oc2ccccc2c1C(=O)c1cc(Br)c(O)c(Br)c1 [BENZBROMARONE] | – | 0.5194 | 0.7137 | 0.8516 | – | – | –
COc1ccc(-c2coc3cc(OC(C)=O)cc(OC(C)=O)c3c2=O)cc1 [BIOCHANIN A DIACETATE] | – | 0.8079 | 0.8835 | 0.9447 | – | – | –
Cc1ccc(S(=O)(=O)/C=C/C#N)cc1 [Bay 11-7082] | – | 0.1157 | 0.2743 | 0.896 | – | – | –
CC(C)(C)c1ccc(S(=O)(=O)/C=C/C#N)cc1 [Bay 11-7085] | – | 0.0422 and 0.0395 | 0.0424 and 0.04 | – | – | – | –
Cc1c(N)nc([C@H](CC(N)=O)NC[C@@H](N)C(N)=O)nc1C(=O)N[C@H](C(=O)N[C@@H](C)[C@H](O)[C@@H](C)C(=O)N[C@@H](C(=O)NCCc1nc(-c2nc(C(=O)NCCC[S+](C)C)cs2)cs1)[C@@H](C)O)C(O[C@H]1O[C@H](CO)[C@H](O)[C@@H](O)[C@H]1O[C@H]1O[C@H](CO)[C@@H](O)[C@H](OC(N)=O)[C@@H]1O)c1c[nH]cn1.O=S(=O)([O-])O (some centres unmarked) [Bleomycin sulfate] | – | 0.261 | 0.4579 | 0.8554 | – | – | –
CC(C(=O)O)c1ccc2c(c1)[nH]c1ccc(Cl)cc12 (centres unmarked) [CARPROFEN] | – | 0.7281 | 0.8523 | 0.8964 | – | – | –
O=C1C(Cl)=C(Cl)C(=O)C(Cl)=C1Cl [CHLORANIL] | – | 0.1832 | 0.4077 | 0.9247 | – | – | –
N#Cc1c(Cl)c(Cl)c(Cl)c(C#N)c1Cl [CHLOROTHALONIL] | – | 0.6512 | 0.8372 | 0.9297 | – | – | –
Clc1ccccc1C(c1ccccc1)(c1ccccc1)n1ccnc1 [CLOTRIMAZOLE] | – | 0.0789 | 0.1029 | 0.8087 | – | – | –
Oc1c(Cl)cc(Cl)c2cccnc12 [Capitrol] | – | 0.0472 | 0.0467 | 0.0526 | – | – | –

SMILES | OffScreen_percentage [percentage] | Offscreen_18hr | Offscreen_24hr | Offscreen_42hr | Offtarget | Offtarget_sub | Read_percentage [percentage]
[H]/N=C(\N/C(=N/[H])NCCCCCCNC(=N)NC(=N)Nc1ccc(Cl)cc1)Nc1ccc(Cl)cc1 [Chlorhexidine hydrochloride] | – | 0.5517 | 0.7908 | 0.9568 | – | – | –
CCN(CC)CCOc1ccc(C(=C(Cl)c2ccccc2)c2ccccc2)cc1 [Clomifene citrate] | – | 0.6687 | 0.875 | 0.9713 | – | – | –
N#Cc1ccc(Oc2ccc3c(c2)COB3O)cc1 [Crisaborole] | – | 0.594 | 0.7965 | 0.9431 | – | – | –
Oc1ccc(Cl)cc1Cc1cc(Cl)ccc1O [DICHLOROPHEN] | – | 0.5869 | 0.7921 | 0.8823 | – | – | –
C=CC(C1=CC(=O)C(OC)=CC1=O)c1ccc(O)cc1 (centres unmarked) [Dalbergione,4-methoxy-4-hydroxy-] | 102.367 | 0.8261 | 0.9183 | 0.9703 | – | – | 102.367
CCN(CC)C(=S)SSC(=S)N(CC)CC [Disulfiram] | – | 0.0526 | 0.0614 | 0.7775 | – | – | –
COc1cccc2c1C(=O)c1c(O)c3c(c(O)c1C2=O)C[C@@](O)(C(=O)CO)C[C@H]3O[C@H]1C[C@H](N)[C@H](O)[C@H](C)O1.Cl [Doxorubicin (Adriamycin)] | – | 0.4346 | 0.6005 | 0.8771 | – | – | –
O=c1c2ccccc2[se]n1-c1ccccc1 [EBSELEN] | – | 0.0405 | 0.0408 | 0.0412 | – | – | –
C=CCOC(Cn1ccnc1)c1ccc(Cl)cc1Cl.O=S(=O)(O)O (centres unmarked) [ENILCONAZOLE SULFATE] | – | 0.81 | 0.8908 | 0.9485 | – | – | –
O=C([O-])c1ccccc1-c1c2cc(I)c(=O)c(I)c-2oc2c(I)c([O-])c(I)cc12.[Na+].[Na+] [ERYTHROSINE SODIUM] | – | 0.8136 | 0.8985 | 0.9466 | – | – | –
O=C(O)Cc1ccc(-c2ccccc2)cc1 [FELBINAC] | – | 0.6742 | 0.7657 | 0.7971 | – | – | –
OC(Cn1cncn1)(Cn1cncn1)c1ccc(F)cc1F [FLUCONAZOLE] | – | 0.7681 | 0.8873 | 0.9468 | – | – | –
Nc1[nH]c(=O)ncc1F [FLUCYTOSINE] | – | 0.7196 | 0.8771 | 0.9452 | – | – | –
CCCCCCCCc1ccc(CCC(N)(CO)CO)cc1.Cl [Fingolimod (FTY720)] | – | 0.0535 | 0.0624 | 0.7799 | – | – | –
COc1ncc(-c2ccc3nccc(-c4ccnnc4)c3c2)cc1NS(=O)(=O)c1ccc(F)cc1F [GSK2126458 (GSK458)] | – | 0.433 | 0.6688 | 0.9364 | – | – | –
CCCCCCc1ccc(O)cc1O [HEXYLRESORCINOL] | – | 0.6446 | 0.822 | 0.8874 | – | – | –
O=C(Nc1cc(C(F)(F)F)cc(C(F)(F)F)c1)c1cc(Cl)ccc1O [IMD 0354] | – | 0.1675 | 0.2933 | 0.8452 | – | – | –
CCC(Cc1c(I)cc(I)c(N)c1I)C(=O)O (centres unmarked) [IOPANIC ACID] | – | 0.6491 | 0.7855 | 0.8261 | – | – | –
Oc1ccc2ccccc2c1SSc1c(O)ccc2ccccc12 [IPA-3] | – | 0.0457 | 0.0481 | 0.1263 | – | – | –
CCC(C)n1ncn(-c2ccc(N3CCN(c4ccc(OC[C@H]5CO[C@](Cn6cncn6)(c6ccc(Cl)cc6Cl)O5)cc4)CC3)cc2)c1=O.Cl.Cl (some centres unmarked) [ITRACONAZOLE HYDROCHLORIDE] | – | 0.8063 | 0.8859 | 0.9404 | – | – | –
CC(=O)[C@]1(O)Cc2c(O)c3c(c(O)c2[C@@H](O[C@H]2C[C@H](N)[C@H](O)[C@H](C)O2)C1)C(=O)c1ccccc1C3=O [Idarubicin HCl] | – | 0.1605 | 0.1891 | 0.402 | – | – | –
CC(=O)[C@]1(O)Cc2c(O)c3c(c(O)c2[C@@H](O[C@H]2C[C@H](N)[C@H](O)[C@H](C)O2)C1)C(=O)c1ccccc1C3=O [Idarubicin] | – | 0.154 | 0.1842 | 0.3602 | – | – | –
O=C1Nc2ccccc2/C1=C1/Nc2ccccc2/C1=N\O [Indirubin-3'-oxime] | – | 0.6559 | 0.8248 | 0.9006 | – | – | –
CC(C)NNC(=O)c1ccncc1.O=P(O)(O)O [Iproniazid phosphate, reference compound] | – | – | – | – | NO | 0.4143 | –
CCC(C)n1ncn(-c2ccc(N3CCN(c4ccc(OC[C@H]5CO[C@](Cn6cncn6)(c6ccc(Cl)cc6Cl)O5)cc4)CC3)cc2)c1=O (some centres unmarked) [Itraconazole (Sporanox)] | – | 0.7339 | 0.8546 | 0.8998 | – | – | –
